Tested on: gene markers (Tap1 or Ctss)
Assay: Temporal changes in blood expression levels of Tap1 and Ctss after heart transplantation (Example 5, FIG. 4)
Format: in vivo, rat
Conditions: s.c. daily dosing as in Example 2; blood mRNA to post-transplantation day 4, relative to pre-transplantation level (as 1)
Protocol: To precisely examine changes in the expression level of each of the genes selected here, their mRNAs were quantified. For Irf1, Psmb9, Nos2, and Pim1, the mRNA was quantified by using 25 ng of extracted mRNA together with each primer and probe shown in Table 1, synthesizing cDNA with TaqMan Reverse Transcription Reagents (manufactured by Applied Biosystems) under the conditions shown in Table 1, on an ABI PRISM 7900HT Detection System (manufactured by Applied Biosystems), and using β-actin as an internal control. For Tap1 and Ctss, mRNA was quantified by using 25 ng of extracted mRNA together with each primer and probe (final concentrations: […] each primer, 250 nM TaqMan probe; TaqMan Gene Expression Assays Rn00709612_ml (Tap1) or Rn00569036_ml (Ctss), Applied Biosystems), synthesizing cDNA with TaqMan Reverse Transcription Reagents (manufactured by Applied Biosystems) on an ABI PRISM 7900HT Detection System (manufactured by Applied Biosystems), and using β-actin as an internal control. […]

## C=CC[C@@H]1/C=C(\C)C[C@H](C)C[C@H](OC)[C@H]2O[C@@](O)(C(=O)C(=O)N3CCCC[C@H]3C(=O)O[C@H](/C(C)=C/[C@@H]3CC[C@@H](O)[C@H](OC)C3)[C@H](C)[C@@H](O)CC1=O)[C@H](C)C[C@@H]2OC [tacrolimus]
  expression levels of the gene markers Tap1 and Ctss compared with the rejection group: suppressed compared with the rejection group, to the level similar to or lower than that of the non-rejection group

— patent publication US20090053695A1, “Gene Marker and Use Thereof” (priority 2004, published 2009)
